The source of these data is article PMC7377239, “Cardiovascular Effects of Polychlorinated Biphenyls and Their Major Metabolites” (Environmental Health Perspectives, 2020).

The data set deals with iCell cardiomyocytes (human iPSC-derived cardiomyocytes). In words: High-content imaging of cytotoxicity and mitochondrial integrity in iPSC-CMs. The format is cell-based. The following applies: for viability at 0.01 µM / activity at 0.01 µM / viability at 0.1 µM / activity at 0.1 µM / viability at 1 µM / activity at 1 µM / viability at 10 µM / activity at 10 µM / viability at 100 µM / activity at 100 µM / minimal effective concentration: Homo sapiens; for viability at 0.01 µM / activity at 0.01 µM / viability at 0.1 µM / activity at 0.1 µM / viability at 1 µM / activity at 1 µM / viability at 10 µM / activity at 10 µM / viability at 100 µM / activity at 100 µM: 0.00 µM = 100.00; for viability at 0.1 µM / activity at 0.1 µM: 0.10 µM. Put shortly: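 Human iPSC-derived cardiomyocytes were seeded on gelatin-coated 384-well plates at 5,000 cells per well and maintained for 12 d. Test chemicals were added as 10μL of 5× solutions to final concentrations of 0.01 to 100μM. Cells were stained with Hoechst 33342 and MitoTracker™ Orange, fixed in formaldehyde, and imaged by confocal high-content microscopy at 10× magnification.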

Setting [1] is: Cardiomyocyte, 1.5 h, read-out: cm.cam.90min.
Where [2] appears, read: Cardiomyocyte, 1.5 h, read-out: cm.mii.90min.
Setting [3] is: Cardiomyocyte, 1.5 h, read-out: cm.mito.90min.
Where [4] appears, read: Cardiomyocyte, 1.5 h, read-out: cm.tc.90min.
Where [5] appears, read: Cardiomyocyte, 24 h, read-out: cm.cam.24hrs.
Where [6] appears, read: Cardiomyocyte, 24 h, read-out: cm.mii.24hrs.
The mark [7] stands for this setting: Cardiomyocyte, 24 h, read-out: cm.mito.24hrs.
[8] abbreviates: Cardiomyocyte, 24 h, read-out: cm.tc.24hrs.
Where [9] appears, read: Cardiomyocyte, 1.5 h, cardiomyocytes (cm), cam, 90 min, read-out: POD cm.cam.90min.
The mark [10] stands for this setting: Cardiomyocyte, 1.5 h, cardiomyocytes (cm), mii, 90 min, read-out: POD cm.mii.90min.
Where [11] appears, read: Cardiomyocyte, 1.5 h, cardiomyocytes (cm), mito, 90 min, read-out: POD cm.mito.90min.
Where [12] appears, read: Cardiomyocyte, 1.5 h, cardiomyocytes (cm), tc, 90 min, read-out: POD cm.tc.90min.
Setting [13] is: Cardiomyocyte, 24 h, cardiomyocytes (cm), cam, 24 hrs, read-out: POD cm.cam.24hrs.
Setting [14] is: Cardiomyocyte, 24 h, cardiomyocytes (cm), mii, 24 hrs, read-out: POD cm.mii.24hrs.
Setting [15] is: Cardiomyocyte, 24 h, cardiomyocytes (cm), mito, 24 hrs, read-out: POD cm.mito.24hrs.
Where [16] appears, read: Cardiomyocyte, 24 h, cardiomyocytes (cm), tc, 24 hrs, read-out: POD cm.tc.24hrs.

SMILES strings stand for the structures. Read-outs that look alike come from different tables or passages of the source.

In the case of `Oc1cc(Cl)cc(-c2cccc(Cl)c2)c1` [5-OH PCB 11], the viability at 0.01 µM stood at 91% under setting [1], 91.1% under setting [4], 99% under setting [5] and 99.8% under setting [8]. Further, the activity at 0.01 µM reads like this: under setting [2], 117%; under setting [3], 90.7%; under setting [6], 95.3%; under setting [7], 97%. Also, the viability at 0.1 µM under setting [1] was determined as 96.6%, the viability at 0.1 µM under setting [4] amounted to 96.5%, the viability at 0.1 µM under setting [5] came to 101% and the viability at 0.1 µM under setting [8] was 101%. In addition, the activity at 0.1 µM was found to be 96.6% under setting [2], 96.4% under setting [3], 93.9% under setting [6] and 100% under setting [7]. The viability at 1 µM under setting [1] came to 99%, the viability at 1 µM under setting [4] was determined as 99%, the viability at 1 µM under setting [5] came to 99.8% and the viability at 1 µM under setting [8] stood at 99.8%. Also, the activity at 1 µM reads like this: under setting [2], 90.6%; under setting [3], 99%; under setting [6], 100%; under setting [7], 97.8%. Besides, the viability at 10 µM was 98.4% under setting [1], 98% under setting [4], 98.2% under setting [5] and 97.8% under setting [8]. Further, the activity at 10 µM under setting [2] came out at 108%, the activity at 10 µM under setting [3] worked out at 98%, the activity at 10 µM under setting [6] stood at 81.6% and the activity at 10 µM under setting [7] was found to be 98.7%. Also, the viability at 100 µM under setting [1] stood at 0%, the viability at 100 µM under setting [4] was 0.0231%, the viability at 100 µM under setting [5] turned out to be 0.0236% and the viability at 100 µM under setting [8] worked out at 0.0229%. Besides, the activity at 100 µM was determined as 69.7% under setting [2], 0.0231% under setting [3], 0% under setting [6] and 0% under setting [7]. For the same molecule, the minimal effective concentration runs as follows: (iPSC-CM, 1.5 h, iPSC-CM, read-out: cm.cam.90min POD) 16.2 µM; (iPSC-CM, 1.5 h, iPSC-CM, read-out: cm.mii.90min POD) 34.1 µM; (iPSC-CM, 1.5 h, iPSC-CM, read-out: cm.mito.90min POD) 13.8 µM; (iPSC-CM, 1.5 h, iPSC-CM, read-out: cm.tc.90min POD) 14 µM; (iPSC-CM, 24 h, iPSC-CM, read-out: cm.cam.24hrs POD) 13.8 µM; (iPSC-CM, 24 h, iPSC-CM, read-out: cm.mii.24hrs POD) 8.43 µM. For the same molecule, the minimal effective concentration came out at 14.6 µM (iPSC-CM, 24 h, iPSC-CM, read-out: cm.mito.24hrs POD) and 10.7 µM (iPSC-CM, 24 h, iPSC-CM, read-out: cm.tc.24hrs POD).
With `Oc1ccc(-c2cccc(Cl)c2)cc1Cl` [4-OH-PCB 11], the minimal effective concentration reads like this: under setting [9], 27.7 µM; under setting [10], 32.7 µM; under setting [11], 40.1 µM; under setting [12], 36.2 µM; under setting [13], 8.57 µM; under setting [14], 43.2 µM. Moreover, the minimal effective concentration was 7.94 µM under setting [15] and 8.62 µM under setting [16].
As to `COc1ccc(-c2ccc(Cl)cc2)cc1` [4'-OMe-PCB 3, 4′-methoxy-4-chlorobiphenyl], the minimal effective concentration under setting [9] worked out at 100 µM; the minimal effective concentration under setting [10] is 100 µM; the minimal effective concentration under setting [11] came to 100 µM; the minimal effective concentration under setting [12] was 100 µM; the minimal effective concentration under setting [13] was 82.9 µM; the minimal effective concentration under setting [14] is 100 µM. The minimal effective concentration is, setting by setting: under setting [15], 100 µM; under setting [16], 100 µM. Also, the “effect on cell viability in iPSC-CMs” value (iPSC-CMs, 0.01-100 μM, 90 min and 24 h) is reported as “little effect on cell viability”.
With `Clc1ccc(-c2ccccc2)cc1` [PCB 3, 4-chlorobiphenyl], the minimal effective concentration under setting [9] is 24.9 µM; the minimal effective concentration under setting [10] came to 6.86 µM; the minimal effective concentration under setting [11] was 21.2 µM; the minimal effective concentration under setting [12] amounted to 20 µM; the minimal effective concentration under setting [13] was 7.4 µM; the minimal effective concentration under setting [14] was 10.9 µM. Also, the minimal effective concentration runs as follows: under setting [15], 6.67 µM; under setting [16], 6.97 µM.
